Laboratory results reported in article PMC11091220, “Metabolism-driven in vitro/in vivo disconnect of an oral ERɑ VHL-PROTAC” (Communications Biology, 2024).
Values joined by “and” are separate entries in the source; they are usually repeats but may differ in a detail not shown here. Identical values can stand only once. Like-named read-outs stand apart in the source and are kept apart here.

Tests used:
[1] = target: T1, recombinant human ERα ligand binding domain (LBD) (Homo sapiens, UniProt P03372); assay: ERα binding assay (LanthaScreen TR-FRET competition); details: mean ± s.d.; read-out: ERα binding IC50
T1 construct: purchased Invitrogen PV4543
T1 sequence (P03372 311-547 limits assumed): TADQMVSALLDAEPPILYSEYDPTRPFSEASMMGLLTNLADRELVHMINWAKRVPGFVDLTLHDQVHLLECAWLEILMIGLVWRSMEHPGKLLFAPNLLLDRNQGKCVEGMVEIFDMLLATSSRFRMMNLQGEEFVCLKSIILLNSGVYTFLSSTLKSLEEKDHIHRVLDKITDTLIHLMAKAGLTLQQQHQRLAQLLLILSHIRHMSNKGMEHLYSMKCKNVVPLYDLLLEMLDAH
Experimental: The ability of compounds to bind to isolated ERα Ligand binding domain (ERα–LBD (GST)) was assessed in competition assays using a LanthaScreenTM Time-Resolved Fluorescence Resonance Energy Transfer (TR-FRET) detection end-point. For the LanthaScreen TR-FRET endpoint, a suitable fluorophore (Fluormone ES2, Product code P2645) and recombinant human ERα ligand binding domain (LBD) (product code PV4543) were purchased from Invitrogen and used to measure compound binding. A terbium-labelled anti-GST antibody (Product code PV3551) is used to indirectly label the receptor by binding to its GST tag, and competitive binding is detected by a test compounds’ ability to displace the fluorescent ligand resulting in a loss of TR-FRET signal between the Tb-anti-GST antibody and the tracer. The assay was performed with all reagent additions carried out using the Beckman Coulter BioRAPTR FRD microfluidic workstation: […]

Chromatographic LogD = type: physicochemical; details: Waters Acquity BEH C18 column, pH 7.4
Experimental: An HPLC with UV detection using diode array detection over a wavelength range of 210-320 nm and confirmation by electrospray mass spectrometry (pos/neg ionisation) is used to determine the chromatographic LogD of compounds. Test compounds, calibrants, and QC samples are prepared as 10 mM stocks in DMSO and further diluted to a final concentration of 0.6 mM in DMSO. […] The chromatographic system is calibrated using standards with known literature values of octanol-water partition coefficient at pH 7.4 (logD7.4) and retention factors, k’, of calibrants, QCs, and samples calculated using equation: k’=(rt-t0)/t0.

ERα = target: T2, ERα (Homo sapiens, UniProt P03372, D538G); assay: CTC174 ex vivo studies, ERα by western blot; type: cell-based; details: for ERα % of DMSO control: CTC174 ex vivo; for remaining activity at 1 µM: read-out: ERα levels, % of control
T2 construct: from tissue; host or cells: CTC174 PDX tumours grown in female NSG mice; for the ex vivo work, single cells disaggregated from these tumours
T2 sequence (P03372 1-595 D538G): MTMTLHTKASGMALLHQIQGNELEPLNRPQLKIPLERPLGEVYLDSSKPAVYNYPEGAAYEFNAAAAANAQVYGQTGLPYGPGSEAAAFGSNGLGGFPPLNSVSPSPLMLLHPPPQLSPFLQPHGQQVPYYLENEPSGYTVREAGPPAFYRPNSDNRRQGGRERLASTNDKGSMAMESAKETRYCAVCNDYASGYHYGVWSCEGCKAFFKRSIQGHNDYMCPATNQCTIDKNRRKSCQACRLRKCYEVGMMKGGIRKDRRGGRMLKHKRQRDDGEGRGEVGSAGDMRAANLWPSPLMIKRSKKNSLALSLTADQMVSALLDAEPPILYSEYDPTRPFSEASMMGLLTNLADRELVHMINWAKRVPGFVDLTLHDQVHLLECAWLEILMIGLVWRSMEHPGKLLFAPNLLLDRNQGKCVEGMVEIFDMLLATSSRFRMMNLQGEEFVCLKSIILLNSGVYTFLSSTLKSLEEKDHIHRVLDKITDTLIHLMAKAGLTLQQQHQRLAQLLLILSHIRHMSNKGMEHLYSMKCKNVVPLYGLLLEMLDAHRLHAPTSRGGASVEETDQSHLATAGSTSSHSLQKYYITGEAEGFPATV
Experimental: CTC174 tumours were collected from donor mice, all fat, mouse tissue and necrotic areas removed and the resultant tumour placed in ice cold PBS and kept on ice. Using forceps, the tumour was then minced into small pieces (1-2 mm). Once minced, the tissue was colleced, placed into a gentlMACS C tube with 4.7 mL DMEM/F12 and enzymes H, R and A (Miltenyi Tumour Dissociation Kit), and run on the gentleMACS Octo Dissociator (Program 37C_h_TDK_2). After dissociation, the cell suspension was passed through a […] filter, red blood cell lysis performed using […] lysis buffer, and the resultant suspension centrifuged, resuspended in RPMI (containing 10% charcoal-stripped FCS) and 1x10^6 cell added to each well of a 6 well plate. DMSO control, AZ’3372 or AZ’6421 were added to well at a range of concentrations, left to incubate for 24 hours (37 °C, 5% CO2) and then samples prepared for western blot and ERα levels determined as described above.

[2] = Total plasma exposure of AZ’6421 and metabolite 8 in rat; type: in vivo; details: for Total plasma: rat, individual animals, analyte = label
Experimental: Fig. 8 Evidence of ER agonism of AZ’6421 and compound 8 in vitro and in vivo. a 100 nM compound or 10 nM estradiol (E2) were incubated with Ishikawa cells for 48 h and lysates measured for PR expression by western blot. b Normalised rat uterine weight shown as % change from respective vehicle control after 4 days dosing. c Representative H&E stained images taken from sections of uterine horn after 4 days of dosing. d Total plasma exposure of AZ’6421 and its metabolite 8 following dosing of 100 mg/kg BID or 30 mg/kg BID AZ’6421. Plasma samples were taken 4 hr after the 4th dose, at the same time as the uterus was weighed and sectioned for H&E staining.
Each plasma sample ([…]) was prepared using an appropriate dilution factor, and compared against an 11-point standard calibration curve (1-10000 nM) prepared in DMSO and spiked into blank plasma. Acetonitrile ([…]) was added with the internal standard, followed by centrifugation at 3000 rpm for 10 minutes. The supernatant ([…]) was then diluted in […] acetonitrile:water (75:25) and analyzed via UPLC-MS/MS.

[3] = reverse-phase HPLC, read-out: chrom LogD
[4] = reversed-phase HPLC, Table 2 source data, read-out: ChromLogD
[5] = AZ'6421 dosed 30 mg/kg BID, 30 mg/kg
[6] = AZ'6421 dosed 100 mg/kg BID, 100 mg/kg

Q: What does the source list for Cc1ncsc1-c1ccc(CNC(=O)[C@@H]2C[C@@H](O)CN2C(=O)[C@@H](NC(=O)COCCCOCCCOc2cc(F)c([C@@H]3c4[nH]c5ccccc5c4C[C@@H](C)N3CC(C)(C)F)c(F)c2)C(C)(C)C)cc1 [Compound 5]?
A: IC50 [1]: < 0.6 nM; chromatographic logD (Chromatographic LogD; [3]): 6.6 ± 0.4; chromatographic logD (Chromatographic LogD; [4]): 6.6; ERα % of DMSO control (ERα; 1 nM, 24 hours): 20.3%; ERα % of DMSO control (ERα; 10 nM, 24 hours): 12.0%; ERα % of DMSO control (ERα; 30 nM, 24 hours): 4.1%; ERα % of DMSO control (ERα; 100 nM, 24 hours): 4.2%; ERα % of DMSO control (ERα; 300 nM, 24 hours): 3.9%; ERα % of DMSO control (ERα; 1000 nM, 24 hours): 3.6%; ERα degradation (ERα; CTC174 cells ex vivo, 24 hours, 10 nM and above): approximately 90%; remaining activity at 1 µM (ERα): < 1%; Total plasma [2, 5]: 0.1461 µM and 0.4943 µM and 0.0995 µM; Total plasma [2, 6]: 1.2846 µM and 2.0194 µM and 0.7522 µM and 0.1020 µM and 0.0689 µM

Q: Which IC50 [1] does the source give for C[C@@H]1Cc2c([nH]c3ccccc23)[C@@H](c2c(F)cc(OCCC(=O)O)cc2F)N1CC(C)(C)F [Compound 8] here?
A: < 0.5 nM

Q: What about the chromatographic logD (Chromatographic LogD; [3]) of the same molecule?
A: 3.8

Q: What about the chromatographic logD (Chromatographic LogD; [4]) of the same molecule?
A: 3.8

Q: What about the remaining activity at 1 µM (ERα; 1000 nM, CTC174 cells ex vivo (Fig. 6f)) of the same molecule?
A: 42%

Q: What about the “level in rat plasma” value ([2]; after dosing AZ’6421) of the same molecule?
A: found at sizable levels in rat plasma

Q: What about the “Total plasma” value [2, 5] of the same molecule?
A: 1.0069 µM and 2.5325 µM and 3.6803 µM and 2.8962 µM and 0.8884 µM

Q: What about the “Total plasma” value [2, 6] of the same molecule?
A: 7.8737 µM and 9.6410 µM and 6.9833 µM and 3.4205 µM and 4.6683 µM
